Source: publication PMC7118210 (Frontiers in Pharmacology, 2020)
Like-named read-outs stand apart in the source and are kept apart here.

Assay: Single-dose pharmacokinetics in rats (plasma, UHPLC/MS/MS)
Assay type: in vivo, Sprague Dawley rats
Settings: for MRT last: read-out: MRT0-t; for MRT inf: read-out: MRT0-∞
Excerpt: Sixty healthy adult Sprague Dawley rats (180-220 g, half male and female) were purchased from the Guangdong Medical Laboratory Animal Center (Guangzhou, Guangdong, China). Thirty Beagle dogs (10-14 kg, half male and female) were purchased from the […] Laboratory Animal Science & Technology Co., Ltd. (Gaoyao, Guangdong, China). All animals were housed under humanized conditions with free access to food and water, and acclimated to the living conditions for at least one week prior to experimentation at the Laboratory Animal Center of the School of Life Sciences, Sun Yat-sen University. Environmental conditions were maintained at 20°C-25°C, 55% ± 15% relative humidity, 12-h light/dark cycles, and 12 air changes per hour. Prior to experimentation, the animals were fasted overnight with water available ad libitum. All animals were healthy based on physical examination and laboratory analyses performed before and after the experiments. At the end of the experiments, the dogs were returned to the Laboratory Animal Center of School of Life Sciences, Sun Yat-sen University. […] All blood samples were transferred into heparin-treated centrifuge tubes and centrifuged for 10 min at 4,000 rpm and 4°C. All human urine samples were mixed and transferred (4 ml) into storage tubes. All biological samples were stored at -80°C. […] The optimal volume and activity in unit volume of enzyme solution [0.2 M acetic acid/water solution: 0.2 M ammonium acetate/water solution, 15:35 (v/v)] were determined through a pretest of the enzyme (rat plasma, 10 μl, 10 U μl^-1; dog plasma, 10 μl, 10 U μl^-1; human plasma, 20 μl, 20 U μl^-1; human urine, 10 μl, 10 U μl^-1). After enzyme incubation, 10 μl of IS solution was added to the plasma and urine samples (2 μg ml^-1 quercetin 3-β-D-glucoside for rat and dog plasma; 583 ng ml^-1 naringin-D4 and 160 ng ml^-1 naringenin-D4 for human plasma; and 9,710 ng ml^-1 naringin-D4 and 6,000 ng ml^-1 naringenin-D4 for human urine). To each fecal sample, 9-fold methanol-normal saline (2:1, v/v) was added, mixed (18,000 rpm, 15 min) by vortexing and centrifuged (10 min, 9,000 rpm, 4°C). Next, 10 μl IS solution (971 ng ml^-1 naringin-D4 and 600 ng ml^-1 naringenin-D4) was added to the supernatants of feces (200 μl) without enzyme incubation. […] The solid material was dissolved with acetonitrile-water (1:1, v/v) and injected into the ultra high-performance liquid chromatography coupled with triple quadrupole mass spectrometry (UHPLC/MS/MS) system as described below. The analysis of nonclinical and clinical samples was performed with a UHPLC/MS/MS system that consisted of a Shimadzu Nexera X2 ultra high-performance liquid chromatography (UHPLC) (Shimadzu Corp., Kyoto, Japan) coupled with an AB Sciex API4000 triple-quadrupole mass spectrometry (MS/MS) system (AB Sciex, Foster City, CA, USA) equipped with an electrospray ionization source and controlled by Analyst (v. 1.6.2) software. […] The injection volume was 10 μl with the flow rate of 0.3 ml min^-1 for plasma, and 0.4 ml min^-1 for urine and feces. The compounds were detected by multiple reaction monitoring in the negative ion electrospray mode. The electrospray source conditions were as follows: ion source gas1 30 psi, ion source gas2 60 psi, curtain gas 20 psi, collisionally activated dissociation (CAD) gas 8 psi, temperature 500°C, and ion spray voltage -4,500 V. Zero air was used for ion source gas1 and ion source gas2 and nitrogen for curtain gas and CAD gas. […] All pharmacokinetic and excretion parameters were expressed as mean ± standard deviation (SD). All mean and SD values were reported to three significant figures. The pharmacokinetic parameters were calculated using the Phoenix WinNonlin software (Version 6.4, Pharsight Corp., Cary, NC, USA) and compared using the Student's t-test (p < 0.05) in SPSS 18.0 (SPSS Inc., Chicago, IL, USA). […]

[1] = both sexes, Sprague Dawley, rat, plasma, iv, 42 mg/kg
[2] = both sexes, Sprague Dawley, rat, plasma, iv, 42 mg/kg, read-out: Cmax
[3] = both sexes, Sprague Dawley, rat, plasma, iv, 42 mg/kg, read-out: Vd
[4] = both sexes, Sprague Dawley, rat, plasma, po, 10.5 mg/kg
[5] = both sexes, Sprague Dawley, rat, plasma, po, 21 mg/kg
[6] = both sexes, Sprague Dawley, rat, plasma, po, 42 mg/kg
[7] = both sexes, Sprague Dawley, rat, plasma, po, 168 mg/kg
[8] = female, Sprague Dawley, rat, plasma, iv, 42 mg/kg
[9] = female, Sprague Dawley, rat, plasma, iv, 42 mg/kg, read-out: Cmax
[10] = female, Sprague Dawley, rat, plasma, po, 10.5 mg/kg
[11] = female, Sprague Dawley, rat, plasma, po, 21 mg/kg
[12] = female, Sprague Dawley, rat, plasma, po, 42 mg/kg
[13] = female, Sprague Dawley, rat, plasma, po, 168 mg/kg
[14] = male, Sprague Dawley, rat, plasma, iv, 42 mg/kg
[15] = male, Sprague Dawley, rat, plasma, iv, 42 mg/kg, read-out: Cmax
[16] = male, Sprague Dawley, rat, plasma, po, 10.5 mg/kg
[17] = male, Sprague Dawley, rat, plasma, po, 21 mg/kg
[18] = male, Sprague Dawley, rat, plasma, po, 42 mg/kg
[19] = male, Sprague Dawley, rat, plasma, po, 168 mg/kg
[20] = naringin 168 mg kg^-1 p.o. single dose, rat
[21] = naringenin after naringin 168 mg kg^-1 p.o. single dose, rat

With `C[C@@H]1O[C@@H](O[C@H]2[C@H](Oc3cc(O)c4c(c3)O[C@H](c3ccc(O)cc3)CC4=O)O[C@H](CO)[C@@H](O)[C@@H]2O)[C@H](O)[C@H](O)[C@H]1O` [naringin, Naringin] the AUC(0-inf) [1] was 18100 ± 7550 ng·h/mL, the AUC(0-t) [1] was 18100 ± 7580 ng·h/mL and the Tmax [1] was 0.03 h. The clearance [1] was 48.3 mL/min/kg, the half-life [1] was 1.62 ± 1.18 h and the Cmax [2] was 88500 ± 51000 ng/mL. It also gave an MRT last [1] of 0.496 ± 0.382 h, an MRT inf [1] of 0.57 ± 0.476 h and a Vd [3] of 8.29 ± 10 L/kg. The half-life (both sexes, Sprague Dawley, rat, plasma, po) was less than 1 h, the AUC(0-inf) [4] was 35.7 ± 29.3 ng·h/mL and the AUC(0-t) [4] was 32.7 ± 27.7 ng·h/mL. For the same compound, the Tmax [4] was 1.5 ± 2.35 h, the half-life [4] was 0.328 ± 0.275 h and the Cmax (both sexes, Sprague Dawley, rat, plasma, po, 10.5 mg/kg, read-out: Cmax) was 31.7 ± 13.2 ng/mL. For the same compound, the MRT last [4] was 0.741 ± 0.423 h, the MRT inf [4] was 1.22 ± 0.297 h and the AUC(0-inf) [5] was 38.4 ± 21.4 ng·h/mL. It also gave an AUC(0-t) [5] of 34.2 ± 20.3 ng·h/mL, a Tmax [5] of 1.53 ± 2.36 h and a half-life [5] of 0.5 ± 0.493 h. It also gave a Cmax (both sexes, Sprague Dawley, rat, plasma, po, 21 mg/kg, read-out: Cmax) of 30.5 ± 16.3 ng/mL, an MRT last [5] of 1.18 ± 0.399 h and an MRT inf [5] of 1.42 ± 0.621 h. The AUC(0-inf) [6] was 45.1 ± 55.4 ng·h/mL, the AUC(0-t) [6] was 40.7 ± 51.3 ng·h/mL and the Tmax [6] was 1.18 ± 1.78 h. It also gave a half-life [6] of 0.463 ± 0.598 h, a Cmax (both sexes, Sprague Dawley, rat, plasma, po, 42 mg/kg, read-out: Cmax) of 52.6 ± 78.8 ng/mL and an MRT last [6] of 1.1 ± 0.381 h. It also gave an MRT inf [6] of 1.24 ± 0.292 h, an AUC(0-inf) [7] of 145 ± 66.4 ng·h/mL and an AUC(0-t) [7] of 140 ± 66.3 ng·h/mL. For the same compound, the Tmax [7] was 2.85 ± 4.06 h, the half-life [7] was 0.738 ± 0.781 h and the MRT last [7] was 2.01 ± 0.451 h. For the same compound, the MRT inf [7] was 1.96 ± 1.08 h, the Tmax (both sexes, Sprague Dawley, rat, plasma, po, rats, nonclinical p.o. administration studies overall) was 1.77 ± 2.64 h and the AUC(0-inf) [8] was 14800 ± 7280 ng·h/mL. For the same compound, the AUC(0-t) [8] was 14800 ± 7290 ng·h/mL, the Tmax [8] was 0.03 h and the half-life [8] was 1.6 ± 0.972 h. For the same compound, the Cmax [9] was 70200 ± 60000 ng/mL, the AUC(0-inf) [10] was 34.6 ± 31.9 ng·h/mL and the AUC(0-t) [10] was 31.9 ± 29.9 ng·h/mL. For the same compound, the Tmax [10] was 1.05 ± 0.622 h, the half-life [10] was 0.465 ± 0.344 h and the Cmax (female, Sprague Dawley, rat, plasma, po, 10.5 mg/kg, read-out: Cmax) was 27.2 ± 11.2 ng/mL. The AUC(0-inf) [11] was 51.9 ± 15.7 ng·h/mL, the AUC(0-t) [11] was 47 ± 15.6 ng·h/mL and the Tmax [11] was 1.55 ± 2.49 h. For the same compound, the half-life [11] was 0.675 ± 0.57 h, the Cmax (female, Sprague Dawley, rat, plasma, po, 21 mg/kg, read-out: Cmax) was 31.1 ± 16 ng/mL and the AUC(0-inf) [12] was 15.3 ± 11.6 ng·h/mL. It also gave an AUC(0-t) [12] of 13.3 ± 10.3 ng·h/mL, a Tmax [12] of 1.7 ± 2.42 h and a half-life [12] of 0.55 ± 0.813 h. The Cmax (female, Sprague Dawley, rat, plasma, po, 42 mg/kg, read-out: Cmax) was 12.6 ± 9.42 ng/mL, the AUC(0-inf) [13] was 142 ± 52.4 ng·h/mL and the AUC(0-t) [13] was 137 ± 50.7 ng·h/mL. The Tmax [13] was 1.95 ± 3.39 h, the half-life [13] was 0.85 ± 0.854 h and the Cmax (female, Sprague Dawley, rat, plasma, po, 168 mg/kg, read-out: Cmax) was 95.8 ± 54.4 ng/mL. The AUC(0-inf) [14] was 21400 ± 6930 ng·h/mL, the AUC(0-t) [14] was 21300 ± 7030 ng·h/mL and the Tmax [14] was 0.03 h. It also gave a half-life [14] of 1.65 ± 1.48 h, a Cmax [15] of 106000 ± 37600 ng/mL and an AUC(0-inf) [16] of 36.9 ± 30.2 ng·h/mL. For the same compound, the AUC(0-t) [16] was 33.5 ± 28.8 ng·h/mL, the Tmax [16] was 1.95 ± 3.4 h and the half-life [16] was 0.19 ± 0.063 h. For the same compound, the Cmax (male, Sprague Dawley, rat, plasma, po, 10.5 mg/kg, read-out: Cmax) was 36.1 ± 14.9 ng/mL, the AUC(0-inf) [17] was 24.8 ± 18 ng·h/mL and the AUC(0-t) [17] was 21.4 ± 16.5 ng·h/mL. For the same compound, the Tmax [17] was 1.5 ± 2.52 h, the half-life [17] was 0.325 ± 0.381 h and the Cmax (male, Sprague Dawley, rat, plasma, po, 21 mg/kg, read-out: Cmax) was 29.9 ± 18.5 ng/mL. For the same compound, the AUC(0-inf) [18] was 74.9 ± 67.6 ng·h/mL, the AUC(0-t) [18] was 68.1 ± 62.7 ng·h/mL and the Tmax [18] was 0.65 ± 0.762 h. For the same compound, the half-life [18] was 0.375 ± 0.354 h, the Cmax (male, Sprague Dawley, rat, plasma, po, 42 mg/kg, read-out: Cmax) was 92.7 ± 99.4 ng/mL and the AUC(0-inf) [19] was 149 ± 84.3 ng·h/mL. For the same compound, the AUC(0-t) [19] was 144 ± 80.3 ng·h/mL, the Tmax [19] was 3.75 ± 4.85 h and the half-life [19] was 0.625 ± 0.781 h. It also gave a Cmax (male, Sprague Dawley, rat, plasma, po, 168 mg/kg, read-out: Cmax) of 113 ± 102 ng/mL, a Vd (naringin 10.5 mg kg^-1 p.o. single dose, rat) of 174 ± 98.3 L/kg and a Vd (naringin 21 mg kg^-1 p.o. single dose, rat) of 322 ± 239 L/kg. The Vd (naringin 42 mg kg^-1 p.o. single dose, rat) was 586 ± 394 L/kg, the Cmax [20] was 104 ± 77.5 ng/mL and the Vd [20] was 639 ± 657 L/kg.

Compound `O=C1C[C@@H](c2ccc(O)cc2)Oc2cc(O)cc(O)c21` [naringenin, Naringenin] has an AUC(0-inf) [1] of 2390 ± 1110 ng·h/mL, an AUC(0-t) [1] of 2360 ± 1120 ng·h/mL and a Tmax [1] of 0.04 ± 0.021 h. For the same compound, the clearance [1] was 390 mL/min/kg, the half-life [1] was 2.45 ± 1.38 h and the Cmax [2] was 3980 ± 2510 ng/mL. It also gave an MRT last [1] of 3.36 ± 2.11 h, an MRT inf [1] of 3.66 ± 2.14 h and a Vd [3] of 88.3 ± 113 L/kg. It also gave a half-life (both sexes, Sprague Dawley, rat, plasma, oral, naringenin in rats, studies overall) of 2.31 ± 1.21 h, a Tmax [8] of 0.043 ± 0.025 h and a half-life [8] of 2.91 ± 1.87 h. The Cmax [9] was 2430 ± 1550 ng/mL, the AUC(0-inf) [14] was 3010 ± 982 ng·h/mL and the AUC(0-t) [14] was 2990 ± 986 ng·h/mL. The Cmax [15] was 5540 ± 2400 ng/mL, the CL [21] was 327 ± 288 mL/min/kg and the Vd [21] was 93.4 ± 121 L/kg. For the same compound, the lag-time in plasma (rats, after p.o. naringin) was 0.701 ± 0.523 h and the “time for concentrations to increase to Cmax after the lag-time” value (rats, after p.o. naringin) was 2.93 ± 2.01 h.
